US20240293318A1, “CLEAVABLE LINKER-CONTAINING IONIZABLE LIPIDS AND LIPID CARRIERS FOR THERAPEUTIC COMPOSITIONS” (Flagship Pioneering Innovations VII, LLC, priority 2023, published 2024)

Experiments:
[1] = Apparent pKa of LNPs (TNS assay); format: physicochemical; settings: LNP, hEPO mRNA, Lipid:Cholesterol:DSPC:PEG-2k 50:38.5:10:1.5, N:P 6
Source text: (§1) Various lipid nanoparticle compositions comprising a nucleic acid payload are characterized by a variety of methods. For example, dynamic light scattering (DLS) is used to determine particle sizes (Wyatt Dynapro Platereader 111). In addition, instruments such as the Zetasizer Nano ZS (Malvern Instruments Ltd) are used to measure multiple physical properties of a lipid nanoparticle composition, such as particle size, polydispersity index (PDI), and zeta potential. Fluorescence-based assays are used to determine the efficiencies of nucleic acid encapsulation in the lipid nanoparticles. Fluorescence-based assays are used to determine the “apparent pKa” of the lipid nanoparticles. Both fluorescence assays are evaluated on a Varioskanlux plate reader (ThermoScientific).
The apparent pKa of lipid nanoparticle composition is measured using a 6-(p-Toluidino)-2-naphthalenesulfonic acid (TNS) assay. Briefly, lipid nanoparticles (10 uL of approximately 0.5 mg mRNA/mL) and TNS probe (40 uL of 1 mM stock) are added to 750 uL of TNS buffer (25 mM citric acid, 20 mM sodium phosphate, 150 mM NaCl, and 20 mM ammonium acetate), at a pH ranging from 2 to 10. 20 uL of each sample are added to 80 uL of buffer at each pH in a 96-well plate. The plate is incubated for 10 minutes, and the fluorescence signal is measured by means of a spectrofluorometer (Varioskanlux, ThermoScientific) with excitation/emission settings of λex=321 nm, and λem=445 nm. The apparent pKa of the nanoparticle composition is determined by deriving the pH at which 50% of the pH 2 fluorescent signal is present. All datapoints are normalized to the fluorescent signal at pH 2.

C57BL/6 female mice = assay: In vivo hEPO expression of hEPO mRNA LNPs, serum ELISA; settings: LNP 50:38.5:10:1.5, N:P 6, 0.2 mg/kg hEPO mRNA, tail vein injection, blood serum 6 h post-administration
Method: In this example, messenger RNA molecules encoding hEPO proteins were formulated in lipid nanoparticles for delivery in vivo. The lipid nanoparticle (LNP) formulations comprised of a lipid composition of ionizable lipid: helper lipid: cholesterol. DMG-PEG2k at 50:10:38.5:1.5 mol %. The lipid mixture in ethanol was mixed with hEPO mRNA in RNA acidifying buffer (10 mM citrate, pH 4) at an ionizable-lipid-nitrogen-to-RNA-phosphate ratio (N:P) of 6 using a microfluidic device (Precision NanoSystems, Inc.) at a combined flow rate of 10 mL/min (7.5 mL/min for aqueous buffer, RNA and 2.5 mL/min for ethanol, lipid mix). The resulting particles were neutralized by buffer exchange into Dulbecco's phosphate buffer solution via PD-10 desalting column. The neutralized particles were concentrated using 100 kDa AMICON® Ultra centrifugal filters and sterile filtered using 0.2 um syringe filters. Samples were then characterized and diluted as needed (3 replicates).
The in vivo studies were performed in C57BL/6 female mice at 6 to 8 weeks weighing in at approximately 20 g. The LNPs formulated with different ionizable lipids at 0.2 mg/kg of hEPO mRNA were administered by tail vein injection and animals were euthanized at 6 h post-administration for blood serum sample collection. The hEPO levels from the samples were analyzed and cross-compared by enzyme-linked immunoassay (ELISA) according to manufacturer's protocol. The hEPO expression levels for each of the LNPs was compared to a control LNP comprising SM102 (DC Chemicals Cat. No. DC52025). (FIG. 1).

[2] = LNP size and polydispersity index by dynamic light scattering (DLS); format: physicochemical; settings: hEPO mRNA, Lipid:Cholesterol:DSPC:PEG-2k 50:38.5:10:1.5, N:P 6
Source text: as §1
After formulation and processing of the lipid nanoparticle compositions, the Z-average size of lipid nanoparticle composition are assayed by dynamic light scattering (DLS) (e.g., using a Wyatt Dynapro Platereader III or Malvern Zetasizer ZS). Briefly, an aliquot of 2 uL of the processed nanoparticle composition mixture (at an RNA concentration of approximately 0.5 mg/mL) is diluted into 50 uL phosphate buffered saline (0.1×PBS) and loaded into a 384 well plate. The sample is then analyzed to determine nanoparticle size.
(§2) LNPs were characterized by dynamic light scattering (DLS) measurement for measuring its hydrodynamic radius and polydispersity index (PDI). Encapsulation efficiency (EE %) and total RNA concentration were quantitated using a fluorescence based Ribogreen assay.

[3] = Encapsulation efficiency, fluorescence based Ribogreen assay; format: physicochemical; settings: LNP, hEPO mRNA, Lipid:Cholesterol:DSPC:PEG-2k 50:38.5:10:1.5, N:P 6
Method: For lipid nanoparticle formulations containing an RNA, a QUANTIT™ RIBOGREEN® RNA assay (Invitrogen Corporation) is used to evaluate the encapsulation of RNA within the lipid nanoparticle formulation.
The samples are diluted to ˜10 ug/ml in TE buffer. In a 96 well plate, 50 ul of the diluted sample is added to 50 uL TE buffer in duplicates and 20 uL of diluted sample is added to 80 uL Triton X buffer (2% triton in TE buffer) in duplicates. The plate is incubated for 10 minutes at room temperature. Next, RIBOGREEN® is diluted 1:200 in TE BUFFER, and 100 uL is added to each sample well. The fluorescence intensity is measured using a fluorescence plate reader (e.g., Varioskanlux, ThermoScientific) at an excitation wavelength of about 480 nm and an emission wavelength of about 520 nm. The encapsulation efficiency can be determined by using the percentage ratio of non-encapsulated RNA (TE sample) over the total RNA (TX sample), then subtracting from 100 to find the percentage of encapsulated RNA amount.
as §2

[4] = Zeta potential assay of LNPs; format: physicochemical; settings: LNP, hEPO mRNA, Lipid:Cholesterol:DSPC:PEG-2k 50:38.5:10:1.5, N:P 6
Source text: as §1
A Zetasizer Nano ZS (Malvern Instruments Ltd) is used to determine the zeta potential of the nanoparticle compositions. Briefly, a 5 uL aliquot of an approximately 0.5 mg mRNA/mL sample is diluted into 800 uL 0.1×PBS. This sample is then transferred to a disposable conducting cuvette and the zeta potential is measured.

CCCCCCCCCCCOC(=O)CCCCCN(CCO)CCCCCCCNP(=O)(OCCCCCCCCC)OCCCCCCCCC [Lipid 5]
pKa [1]: 6.8 | hEPO (C57BL/6 female mice): 114.89 ng/mL | PDI [2]: 0.358 | Size [2]: 87.4 nm | EE [3]: 95.3% | Zeta [4]: −1.0 mV

CCCCCCCCC(CC)OC(=O)CCCCCCCN(CCCCCCCC(=O)OC(CCCCCCCC)CCCCCCCC)CCCNS(=O)(=O)N(C)C (centres unmarked) [Lipid 20]
pKa [1]: 6.6 | hEPO (C57BL/6 female mice): 361.46 ng/mL | PDI [2]: 0.162 | Size [2]: 58.6 nm | EE [3]: 95.2% | Zeta [4]: −14.5 mV

CCCCCCCCCCCNP(=O)(OCC)OCCCCCN(CCO)CCCCCCCC(=O)OC(CCCCCCCC)CCCCCCCC (centres unmarked) [Lipid 14]
pKa [1]: 6.9 | hEPO (C57BL/6 female mice): 33.98 ng/mL | PDI [2]: 0.248 | Size [2]: 101.5 nm | EE [3]: 98.3% | Zeta [4]: 0.9 mV

CCCCCCCCC(CC)OC(=O)CCCCCCCN(CCCCCCCC(=O)OC(CCCCCCCC)CCCCCCCC)CCCn1nc(N)cc1N (centres unmarked) [Lipid 18]
pKa [1]: 6.5 | hEPO (C57BL/6 female mice): 386.98 ng/mL | PDI [2]: 0.079 | Size [2]: 67.2 nm | EE [3]: 98.9% | Zeta [4]: −12.8 mV

CCCCCCCCCCCOC(=O)CCN(CCO)CCCCCCCC(=O)OC(CCCCCCCC)CCCCCCCC [Lipid 4]
pKa [1]: 5.1 | hEPO (C57BL/6 female mice): 0.00 ng/mL | PDI [2]: 0.103 | Size [2]: 56.2 nm | EE [3]: 97.5% | Zeta [4]: −9.3 mV

CCCCCCCCCCCCOC(=O)CCN(CCO)CCCCCCCC(=O)OC(CCCCCCCC)CCCCCCCC [Lipid 3]
pKa [1]: 5.1 | hEPO (C57BL/6 female mice): 0.00 ng/mL | PDI [2]: 0.48 | Size [2]: 62.8 nm | EE [3]: 97.6% | Zeta [4]: −9.2 mV

CCCCCCCCCCCOC(=O)CCCCCN(CCO)CCCCCCCNP(=O)(OCCCCCCCC)OCCCCCCCC [Lipid 6]
pKa [1]: 6.9 | hEPO (C57BL/6 female mice): 304.28 ng/mL | PDI [2]: 0.227 | Size [2]: 132.7 nm | EE [3]: 95.8% | Zeta [4]: −0.4 mV

CCCCCCCCCCCNP(=O)(OCC)OCCCCCN(CCO)CCCCCCCOP(=O)(NCCCCCCCCC)OCCCCCCCCC (centres unmarked) [Lipid 12]
pKa [1]: 8.3 | hEPO (C57BL/6 female mice): 0.00 ng/mL | PDI [2]: 0.316 | Size [2]: 87.6 nm | EE [3]: 99.3% | Zeta [4]: 3.5 mV

CCCCCCCCC(CC)OC(=O)CCCCCCCN(CCCCCCCC(=O)OC(CCCCCCCC)CCCCCCCC)CCCNc1cc(N)n[nH]1 (centres unmarked) [Lipid 22]
pKa [1]: 5.8 | hEPO (C57BL/6 female mice): 78.29 ng/mL | PDI [2]: 0.159 | Size [2]: 62.7 nm | EE [3]: 99.9% | Zeta [4]: −15.3 mV

CCCCCCCCCCCOC(=O)CCCCCN(CCO)CCCCCCCOP(=O)(NCCCCCCCCC)OCCCCCCCCC (centres unmarked) [Lipid 7]
pKa [1]: 6.9 | hEPO (C57BL/6 female mice): 80.47 ng/mL | PDI [2]: 0.296 | Size [2]: 145.3 nm | EE [3]: 97.2% | Zeta [4]: −2.0 mV

CCCCCCCCC(CC)OC(=O)CCCCCCCN(CCCCCCCC(=O)OC(CCCCCCCC)CCCCCCCC)CCCNc1nnc(N)[nH]1 (centres unmarked) [Lipid 17]
pKa [1]: 6.1 | hEPO (C57BL/6 female mice): 6.59 ng/mL | PDI [2]: 0.169 | Size [2]: 75.1 nm | EE [3]: 98.8% | Zeta [4]: −14.1 mV

CCCCCCCCCNP(=O)(OCCCCCCCCC)OCCCCCCCN(CCO)CCCCCOP(=O)(NCCCCCCCCC)OCCCCCCCCC (centres unmarked) [Lipid 13]
pKa [1]: 7.8 | hEPO (C57BL/6 female mice): 49.71 ng/mL | PDI [2]: 0.108 | Size [2]: 67.1 nm | EE [3]: 96.7% | Zeta [4]: 2.4 mV

CCCCCCCCCCOP(=O)(NCCCCCN(CCO)CCCCCCCC(=O)OC(CCCCCCCC)CCCCCCCC)OCC (centres unmarked) [Lipid 10]
pKa [1]: 7.2 | hEPO (C57BL/6 female mice): 90.05 ng/mL | PDI [2]: 0.064 | Size [2]: 85.6 nm | EE [3]: 99.6% | Zeta [4]: 0.8 mV

CCCCCCCCCCCCCCOC(=O)CCN(CCO)CCCCCCCC(=O)OC(CCCCCCCC)CCCCCCCC [Lipid 1]
pKa [1]: 5.1 | hEPO (C57BL/6 female mice): 0.00 ng/mL | PDI [2]: 0.267 | Size [2]: 65.8 nm | EE [3]: 97.9% | Zeta [4]: −8.8 mV

CCCCCCCCC(CC)OC(=O)CCCCCCCN(CCCCCCCC(=O)OC(CCCCCCCC)CCCCCCCC)CCCn1nc(N)nc1N (centres unmarked) [Lipid 21]
pKa [1]: 6.5 | hEPO (C57BL/6 female mice): 0.00 ng/mL | PDI [2]: 0.277 | Size [2]: 83.3 nm | EE [3]: 96.4% | Zeta [4]: −12.3 mV

CCCCCCCCC(CC)OC(=O)CCCCCCCN(CCCCCCCC(=O)OC(CCCCCCCC)CCCCCCCC)CCCNS(=O)(=O)NC (centres unmarked) [Lipid 19]
pKa [1]: 6.3 | hEPO (C57BL/6 female mice): 1014.79 ng/mL | PDI [2]: 0.183 | Size [2]: 60.9 nm | EE [3]: 96.9% | Zeta [4]: −27.6 mV

CCCCCCCCCCCOP(=O)(NCCCCCN(CCO)CCCCCCCC(=O)OC(CCCCCCCC)CCCCCCCC)OCC (centres unmarked) [Lipid 9]
pKa [1]: 7.0 | hEPO (C57BL/6 female mice): 184.44 ng/mL
